Laboratory results as given in patent publication US9469615B2, “Quinoxalines and AZA-quinoxalines as CRTH2 receptor modulators” (Merck Sharp & Dohme Corp., priority 2010, dated 2016).
pKi: −log10 of the molar value.

What follows are molecules tested against T1, hCRTH2 (Homo sapiens, UniProt Q9Y5Y4) (assay: Radioligand binding assay ([3H]PGD2 competition, HEK-hCRTH2 membranes)). Conditions: [3H]PGD2 competition, Table B.
T1 construct: expressed in transfected cells; host or cells: HEK (human embryonic kidney) cells expressing hCRTH2; membrane preparation
T1 sequence (Q9Y5Y4 1-395): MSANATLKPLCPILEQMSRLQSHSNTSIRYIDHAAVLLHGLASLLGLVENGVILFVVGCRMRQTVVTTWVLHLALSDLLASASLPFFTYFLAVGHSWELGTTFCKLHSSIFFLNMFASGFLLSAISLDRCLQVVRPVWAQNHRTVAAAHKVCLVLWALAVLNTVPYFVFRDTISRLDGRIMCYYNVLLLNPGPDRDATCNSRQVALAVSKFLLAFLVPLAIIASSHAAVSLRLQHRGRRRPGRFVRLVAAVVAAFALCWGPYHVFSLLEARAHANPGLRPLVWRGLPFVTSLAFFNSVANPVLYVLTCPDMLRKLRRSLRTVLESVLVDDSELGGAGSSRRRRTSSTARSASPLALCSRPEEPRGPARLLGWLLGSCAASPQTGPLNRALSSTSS
Procedure, shortened: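 HEK-hCRTH2 membranes, 8-20 μg; [3H]PGD2 3.0 nM; 50 mM Tris-HCl pH 7.4/1 mM EDTA/2 mM MnCl2; DMSO 1%; 60 min RT; NSB 10 μM PGD2; filtration, scintillation counting.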

pKi	Compound
8.70 to 10.00	O=C(O)CCCCc1nc2cc(C(=O)N3CCN(c4c(Cl)cncc4Cl)CC3)ccc2nc1-c1ccc(Cl)cc1 [compound 596, 5-(3-(4-chlorophenyl)-7-(4-(3,5-dichloropyridin-4-yl)piperazine-1-carbonyl)quinoxalin-2-yl)pentanoic acid]
7.70 to 8.68	O=C(O)CCCCc1nc2cc(C(=O)N3CCN(c4cnccn4)CC3)ccc2nc1-c1ccc(Cl)cc1 [compound 597, 5-(3-(4-chlorophenyl)-7-(4-(pyrazin-2-yl)piperazine-1-carbonyl)quinoxalin-2-yl)pentanoic acid]
7.70 to 8.68	O=C(O)CCCCc1nc2cc(C(=O)N3CCN4CCCC4C3)ccc2nc1-c1ccc(Cl)cc1 (stereo not shown) [compound 598, 5-(3-(4-chlorophenyl)-7-(octahydropyrrolo[1,2-a]pyrazine-2-carbonyl)quinoxalin-2-yl)pentanoic acid]
8.70 to 10.00	O=C(O)CCCCc1nc2cc(C(=O)N3CCN(c4ccc(C(F)(F)F)cn4)CC3)ccc2nc1-c1ccc(Cl)cc1 [compound 599, 5-(3-(4-chlorophenyl)-7-(4-(5-yl)piperazine-1-carbonyl)quinoxalin-2-yl)pentanoic acid]
8.70 to 10.00	O=C(O)CCCCc1nc2cc(C(=O)N3CCN(c4ccccc4C(F)(F)F)CC3)ccc2nc1-c1ccc(Cl)cc1 [compound 600, 5-(3-(4-chlorophenyl)-7-(4-(2-(trifluoromethyl)phenyl)piperazine-1-carbonyl)quinoxalin-2-yl)pentanoic acid]
7.70 to 8.68	O=C(O)CCCCc1nc2cc(C(=O)N3CCN(c4nccs4)CC3)ccc2nc1-c1ccc(Cl)cc1 [compound 601, 5-(3-(4-chlorophenyl)-7-(4-(thiazol-2-yl)piperazine-1-carbonyl)quinoxalin-2-yl)pentanoic acid]
8.70 to 10.00	O=C(O)CCCCc1nc2cc(C(=O)N3CCN(c4nc5ccccc5s4)CC3)ccc2nc1-c1ccc(Cl)cc1 [compound 602, 5-(7-(4-(benzo[d]thiazol-2-yl)piperazine-1-carbonyl)-3-(4-chlorophenyl)quinoxalin-2-yl)pentanoic acid]
7.70 to 8.68	O=C(O)CCCCc1nc2cc(C(=O)N3CCc4ccccc4C3)ccc2nc1-c1ccc(Cl)cc1 [compound 603, 5-(3-(4-chlorophenyl)-7-(1,2,3,4-tetrahydroisoquinoline-2-carbonyl)quinoxalin-2-yl)pentanoic acid]
8.70 to 10.00	N#CC1(c2ccccc2)CCN(C(=O)c2ccc3nc(-c4ccc(Cl)cc4)c(CCCCC(=O)O)nc3c2)C1 (stereo not shown) [compound 604, 5-(3-(4--chlorophenyl)-7-(3-cyano-3-phenyl-pyrrolidine-1-carbonyl)quinoxalin-2-yl)pentanoic acid]
8.70 to 10.00	CS(=O)(=O)N1CCC(NC(=O)c2ccc3nc(-c4ccc(Cl)cc4)c(CCCCC(=O)O)nc3c2)c2ccccc21 (stereo not shown) [compound 605, 5-(3-(4-chlorophenyl)-7-((1-(methylsulfonyl)-1,2,3,4-tetrahydroquinolin-4-yl)carbamoyl)quinoxalin-2-yl)pentanoic acid]
7.70 to 8.68	O=C(O)CCCCc1nc2cc(C(=O)N3CC(c4ccc(F)cc4)C3)ccc2nc1-c1ccc(Cl)cc1 [compound 606, 5-(3-(4-chlorophenyl)-7-(3-(4-fluorophenyl)azetidine-1-carbonyl)quinoxalin-2-yl)pentanoic acid]
8.70 to 10.00	O=C(O)CCCCc1nc2cc(C(=O)N3Cc4ccccc4C3)ccc2nc1-c1ccc(Cl)cc1 [compound 607, 5-(3-(4-chlorophenyl)-7-(isoindoline-2-carbonyl)quinoxalin-2-yl)pentanoic acid]
7.70 to 8.68	O=C(O)CCCCc1nc2cc(C(=O)N3CCc4c([nH]c5ccccc45)C3)ccc2nc1-c1ccc(Cl)cc1 [compound 608, 5-(3-(4-chlorophenyl)-7-(2,3,4,9-tetrahydro-1H-pyrido[3,4-b]indole-2-carbonyl)quinoxalin-2-yl)pentanoic acid]
8.70 to 10.00	O=C(O)CCCCc1nc2cc(C(=O)N3CCN(c4ccccc4Cl)CC3)ccc2nc1-c1ccc(Cl)cc1 [compound 609, 5-(3-(4-chlorophenyl)-7-(4-(2-chlorophenyl)piperazine-1-carbonyl)quinoxalin-2-yl)pentanoic acid]
8.70 to 10.00	O=C(O)CCCCc1nc2cc(C(=O)N3CCN(c4cccc(C(F)(F)F)c4)CC3)ccc2nc1-c1ccc(Cl)cc1 [compound 610, 5-(3-(4-chlorophenyl)-7-(4-(3-(trifluoromethyl)phenyl)piperazine-1-carbonyl)quinoxalin-2-yl)pentanoic acid]
7.70 to 8.68	CCCCN(CCC)C(=O)c1ccc2nc(-c3ccc(Cl)cc3)c(CCCCC(=O)O)nc2c1 [compound 611, 5-(7-(butyl(propyl)carbamoyl)-3-(4-chlorophenyl)quinoxalin-2-yl)pentanoic acid]
8.70 to 10.00	O=C(O)CCCCc1nc2cc(C(=O)N[C@H]3CCOc4cc(F)ccc43)ccc2nc1-c1ccc(Cl)cc1 [compound 612, (S)-5-(3-(4-chlorophenyl)-7-((7-fluorochroman-4-yl)carbamoyl)quinoxalin-2-yl)pentanoic acid]
6.70 to 7.70	O=C(O)CCCCc1nc2cc(C(=O)N3CCO[C@@H](c4ccc(F)cc4)C3)ccc2nc1-c1ccc(Cl)cc1 [compound 613, (S)-5-(3-(4-chlorophenyl)-7-(2-(4-fluorophenyl)morpholine-4-carbonyl)quinoxalin-2-yl)pentanoic acid]
7.70 to 8.68	O=C(O)CCCCc1nc2cc(C(=O)N3CCO[C@H](c4ccc(F)cc4)C3)ccc2nc1-c1ccc(Cl)cc1 [compound 614, (R)-5-(3-(4-chlorophenyl)-7-(2-(4-fluorophenyl)morpholine-4-carbonyl)quinoxalin-2-yl)pentanoic acid]
7.70 to 8.68	O=C(O)CCCCc1nc2cc(C(=O)N3CCO[C@@H](c4ccc(C(F)(F)F)cc4)C3)ccc2nc1-c1ccc(Cl)cc1 [compound 615, (S)-5-(3-(4-chlorophenyl)-7-(2-(4-(trifluoromethyl)phenyl)morpholine-4-carbonyl)quinoxalin-2-yl)pentanoic acid]
6.70 to 7.70	O=C(O)CCCCc1nc2cc(C(=O)N3CCO[C@H](c4ccc(C(F)(F)F)cc4)C3)ccc2nc1-c1ccc(Cl)cc1 [compound 616, (R)-5-(3-(4-chlorophenyl)-7-(2-(4-(trifluoromethyl)phenyl)morpholine-4-carbonyl)quinoxalin-2-yl)pentanoic acid]
8.70 to 10.00	O=C(O)CCCCc1nc2cc(C(=O)N[C@@H]3CCCc4ccncc43)ccc2nc1-c1ccc(Cl)cc1 [compound 617]
8.70 to 10.00	O=C(O)CCCCc1nc2cc(C(=O)N[C@H]3CCCc4ccncc43)ccc2nc1-c1ccc(Cl)cc1 [compound 618, (S)-5-(3-(4-chlorophenyl)-7-((5,6,7,8-tetrahydroisoquinolin-8-yl)carbamoyl)quinoxalin-2-yl)pentanoic acid]
8.70 to 10.00	Cc1ccccc1N1CCN(C(=O)c2ccc3nc(-c4ccc(Cl)cc4)c(CCCCC(=O)O)nc3c2)CC1 [compound 619, 5-(3-(4-chlorophenyl)-7-(4-(o-tolyl)piperazine-1-carbonyl)quinoxalin-2-yl)pentanoic acid]
8.70 to 10.00	Cc1cccc(N2CCN(C(=O)c3ccc4nc(-c5ccc(Cl)cc5)c(CCCCC(=O)O)nc4c3)CC2)c1 [compound 620, 5-(3-(4-chlorophenyl)-7-(4-(m-tolyl)piperazine-1-carbonyl)quinoxalin-2-yl)pentanoic acid]
